The source of these data is PMC5079829 (Bioorganic & medicinal chemistry, 2016).

Assay [1] relates to HIV-1 Env pseudovirus BG505-T332N. To be noted: subtype A, previously published ref 18; cited from earlier work.
Assay [2] relates to panel of 51 Env-pseudotyped viruses. Briefly: microbe, parasite or virus in culture. The format is cell-based. Conditions: Human immunodeficiency virus 1, read-out: IC50 range over the pseudovirus panel.
Assay [3] deals with HIV-1 Env pseudovirus QF495.23M.ENV.B2. Conditions: QF495.23M.ENV.B2, subtype A, NIH # 11892; previously published ref 18; cited from earlier work.
The subject of assay [4] is HIV-1 Env pseudovirus AC10.0, clone 29. Conditions: AC10.0, clone 29, subtype B, NIH # 11024; previously published ref 18; cited from earlier work.
Assay [5] has as its system HIV-1 Env pseudovirus SC422661.8. To be noted: SC422661.8, subtype B, NIH # 11058; previously published ref 18; cited from earlier work.
Assay [6] concerns HIV-1 Env pseudovirus QB726.70M.ENV.C4. Conditions: QB726.70M.ENV.C4, subtype A, NIH # 11888; previously published ref 18; cited from earlier work.
For assay [7], the system named is HIV-1 Env pseudovirus pTHRO4156 clone 18. To be noted: pTHRO4156 clone 18, subtype B, NIH # 11037; previously published ref 18; cited from earlier work.
For assay [8], the system named is HIV-1 Env pseudovirus QG393.60M.ENV.A1. To be noted: QG393.60M.ENV.A1, subtype A2/D, NIH # 11905; previously published ref 18; cited from earlier work.
Assay [9] deals with HIV-1 Env pseudovirus CRF02_AG clone 266. Conditions: CRF02_AG clone 266, subtype A/G, NIH # 11602; previously published ref 18; cited from earlier work.
Assay [10] deals with HIV-1 Env pseudovirus CAP210.2.00.E8. Conditions: CAP210.2.00.E8, subtype C, NIH # 11317; previously published ref 18; cited from earlier work.
For assay [11], the system named is HIV-1 Env pseudovirus QB099.391M.ENV.C8. To be noted: QB099.391M.ENV.C8, subtype C, NIH # 11909; previously published ref 18; cited from earlier work.
For assay [12], the system named is HIV-1 Env pseudovirus BF535.W6M.ENV.A1. Conditions: BF535.W6M.ENV.A1, subtype D/A, NIH # 11517 (infant); previously published ref 18; cited from earlier work.
The subject of assay [13] is HIV-1 Env pseudovirus QG393.60M.ENV.B8. To be noted: QG393.60M.ENV.B8, subtype A2/D, NIH # 11907; previously published ref 18; cited from earlier work.
The subject of assay [14] is HIV-1 Env pseudovirus ZM135M.PL10a. Conditions: subtype C, NIH # 11315, previously published ref 18; cited from earlier work.
The test system of assay [15] is HIV-1 Env pseudovirus QH0692, clone 42. To be noted: QH0692, clone 42, subtype B, NIH # 11018; previously published ref 18; cited from earlier work.
Assay [16] has as its system HIV-1 Env pseudovirus p1058_11.B11.1550. To be noted: p1058_11.B11.1550, subtype B, NIH # 11563, R5X4-tropic; previously published ref 18; cited from earlier work.
In assay [17] the test system is HIV-1 Env pseudovirus ZM214M.PL15. Conditions: ZM214M.PL15, subtype C, NIH # 11310; previously published ref 18; cited from earlier work.
Assay [18] has as its system HIV-1 Env pseudovirus QG393.60M.ENV.B7. Conditions: QG393.60M.ENV.B7, subtype A2/D, NIH # 11906; previously published ref 18; cited from earlier work.
The test system of assay [19] is HIV-1 Env pseudovirus QD435.100M.ENV.E1. To be noted: QD435.100M.ENV.E1, subtype D, NIH # 11918; previously published ref 18; cited from earlier work.
Assay [20] has as its system HIV-1 Env pseudovirus CRF02_AG clone 278. To be noted: CRF02_AG clone 278, subtype A/G, NIH # 11605; previously published ref 18; cited from earlier work.
In assay [21] the test system is HIV-1 Env pseudovirus pCAAN5342 clone A2. Conditions: pCAAN5342 clone A2, subtype B, NIH # 11038; previously published ref 18; cited from earlier work.
Assay [22] has as its system HIV-1 Env pseudovirus QF495.23M.ENV.A1. To be noted: QF495.23M.ENV.A1, subtype A, NIH # 11890; previously published ref 18; cited from earlier work.
Assay [23] relates to H9/HIV-1IIIB. Conditions: previously reported; cited from earlier work.

`Cc1nc([C@H](NC(=O)c2ccc(-c3ccc(Cl)cc3)[nH]2)[C@@H]2CCCCN2)sc1CO` [NBD-11021A2]: the IC50 (commonly the point on the concentration scale where inhibition reaches its midpoint) was 1000 ± 100 nM in [1]; 320 to 4400 nM in [2]; 600 ± 400 nM in [3]; 320 ± 10 nM in assay [4]; 330 ± 10 nM in assay [5]; 1300 ± 300 nM in assay [6]. Also, the IC50 is 1000 ± 200 nM in assay [7]; 410 ± 200 nM in assay [8]; 1000 ± 200 nM in assay [9]; 2800 ± 700 nM in assay [10]; 1800 ± 500 nM in [11]; 2800 ± 600 nM in assay [12]. The IC50 in assay [13] is 480 ± 200 nM; in assay [14] it was 2700 ± 1200 nM; in assay [15], 520 ± 100 nM; in assay [16] it was 1100 ± 800 nM; in assay [17], 2700 ± 200 nM; in assay [18], 800 ± 300 nM. Besides, the IC50 is 3700 ± 100 nM in assay [19], 1300 ± 500 nM in [20], 600 ± 70 nM in [21] and 1300 ± 400 nM in assay [22].
Take `CC1(C)CC(NC(=O)C(=O)Nc2ccc(Cl)cc2)CC(C)(C)N1` [NBD-556]: the “inhibition of cell-to-cell HIV-1 transmission” value in assay [23] was “failed to do so”.
